Experimental data reported in US6156700A, “3-(1,2-Benzisothiazol- and isoxazol-5-yl)-2,4(1H,3H)-pyrimidinedione or thione and 3-(1,2-benzisothiazol- and isoxazol-5-yl)-4(3H)-pyrimidinone or thione herbicidal agents” (American Cyanmid Company, priority 1998, dated 2000).

What was measured:
Conditions in all cases: 0.0630 kg/ha
[1] = test system: Ragweed, Common, Ambrosia artemisifolia; test: Postemergence herbicidal evaluation, AMBEL; format: in vivo, L.
Description: (§1) In the tests, seedling plants are grown in jiffy flats for about two weeks. The test compounds are dispersed in 50/50 acetone/water mixtures containing 0.5% TWEEN®20, a polyoxyethylene sorbitan monolaurate surfactant of Atlas Chemical Industries, in sufficient quantities to provide the equivalent of about 0.0157 kg to 0.500 kg per hectare of active compound when applied to the plants through a spray nozzle operating at 40 psi for a predetermined time. After spraying, the plants are placed on greenhouse benches and are cared for in accordance with conventional greenhouse procedures. From four to five weeks after treatment, the seedling plants are examined and rated according to the rating system set forth below. Where more than one test is involved for a given compound, the data are averaged.
(§2) Results of herbicide evaluation are expressed on a rating scale (0-9). The scale is based upon a visual observation of plant stand, vigor, malformation, size, chlorosis and overall plant appearance as compared with a control.

[2] = test system: Lambsquarters, Common, Chenopodium album; test: Postemergence herbicidal evaluation, CHEAL; format: in vivo, L.
Description: as §1, §2

[3] = test system: Foxtail, Green, Setaria viridis; test: Postemergence herbicidal evaluation, SETVI; format: in vivo, (L.) Beau
Description: as §1, §2

[4] = test system: Soybean, Williams, Glycine max; test: Postemergence herbicidal evaluation, GLXMAW; format: in vivo, (L.) Merr. cv Williams
Description: as §1, §2

[5] = test system: Rice, Tebonnet, Oryza sativa; test: Postemergence herbicidal evaluation, ORYSAT; format: in vivo, (L.) Tebonnet
Description: as §1, §2

[6] = test system: Corn, Field, Zea mays; test: Postemergence herbicidal evaluation, ZEAMX; format: in vivo, L.
Description: as §1, §2

[7] = test system: Velvetleaf, Abutilon theophrasti; test: Postemergence herbicidal evaluation, ABUTH; format: in vivo, Medic.
Description: as §1, §2

[8] = test system: Galium, Galium aparine; test: Postemergence herbicidal evaluation, GALAP; format: in vivo
Description: as §1, §2

[9] = test system: Wheat, Winter, cv Riband, Triticum aestivum; test: Postemergence herbicidal evaluation, TRZAWR; format: in vivo
Description: as §1, §2

[10] = test system: Sicklepod, Cassia obtusifolia; test: Postemergence herbicidal evaluation, CASOB; format: in vivo, L.
Description: as §1, §2

[11] = test system: Morningglory, Ivyleaf, Ipomoea hederacea; test: Postemergence herbicidal evaluation, IPOHE; format: in vivo, (L.) Jacq.
Description: as §1, §2

[12] = test system: Barnyardgrass, Echinochloa crus-galli; test: Postemergence herbicidal evaluation, ECHCG; format: in vivo, (L.) Beau
Description: as §1, §2

Structure (SMILES) | herbicide rating (0-9) [1] | herbicide rating (0-9) [2] | herbicide rating (0-9) [3] | herbicide rating (0-9) [4] | herbicide rating (0-9) [5] | herbicide rating (0-9) [6] | herbicide rating (0-9) [7] | herbicide rating (0-9) [8] | herbicide rating (0-9) [9] | herbicide rating (0-9) [10] | herbicide rating (0-9) [11] | herbicide rating (0-9) [12]
C#CCOC(=O)C(C)Oc1ccc(C)cc1-c1nsc2ccc(-n3c(=O)cc(C(F)(F)F)n(C)c3=O)cc12 (stereo not drawn) [Compound 77, 2-Propynyl 2-{{2-{5-[3,6-dihydro-3-methyl-2,6-dioxo-4-(trifluoromethyl)-1(2H)-pyrimidinyl]-1,2-benzisothiazol-3-yl}-p-tolyl}oxy}propionate] | 9.0 | 9.0 | 9.0 | 7.0 | 9.0 | 8.0 | 9.0 | 9.0 | 9.0 | 4.0 | 9.0 | 9.0
C=CCOC(=O)C(C)Oc1ccc(C)cc1-c1nsc2ccc(-n3c(=O)cc(C(F)(F)F)n(C)c3=O)cc12 (stereo not drawn) [Compound 78, Allyl 2-{{2-{5-[3,6-dihydro-3-methyl-2,6-dioxo-4-(trifluoromethyl)-1(2H)-pyrimidinyl]-1,2-benzisothiazol-3-yl}-p-tolyl}oxy}propionate] | 9.0 | 9.0 | 9.0 | 6.5 | 7.0 | 7.5 | 9.0 | 7.0 | 9.0 | 3.0 | 9.0 | 9.0
Cc1ccc(OC(C)C(=O)OCc2ccco2)c(-c2nsc3ccc(-n4c(=O)cc(C(F)(F)F)n(C)c4=O)cc23)c1 (stereo not drawn) [Compound 79, Furfuryl 2-{{2-{5-[3,6-dihydro-3-methyl-2,6-dioxo-4-(trifluoromethyl)-1(2H)-pyrimidinyl]-1,2-benzisothiazol-3-yl}-p-tolyl}oxy}propionate] | 9.0 | 9.0 | 9.0 | 7.5 | 7.5 | 7.5 | 9.0 | 9.0 | 8.5 | 7.0 | 9.0 | 9.0
CC#CCOC(=O)C(C)Oc1ccc(C)cc1-c1nsc2ccc(-n3c(=O)cc(C(F)(F)F)n(C)c3=O)cc12 (stereo not drawn) [Compound 80, 2-Butynyl 2-{{2-{5-[3,6-dihydro-3-methyl-2,6-dioxo-4-(trifluoromethyl)-1(2H)-pyrimidinyl]-1,2-benzisothiazol-3-yl}-p-tolyl}oxy}propionate] | 9.0 | 9.0 | 9.0 | 7.5 | 7.5 | 7.5 | 9.0 | 9.0 | 8.0 | 7.0 | 9.0 | 9.0
Cc1ccc(OC(C)C(=O)OCCCl)c(-c2nsc3ccc(-n4c(=O)cc(C(F)(F)F)n(C)c4=O)cc23)c1 (stereo not drawn) [Compound 81, 2-Chloroethyl 2-{{2-{5-[3,6-dihydro-3-methyl-2,6-dioxo-4-(trifluoromethyl)-1(2H)-pyrimidinyl]-1,2-benzisothiazol-3-yl}-p-tolyl}oxy}propionate] | 9.0 | 9.0 | 9.0 | 7.0 | 8.0 | 8.0 | 9.0 | 9.0 | 8.5 | 3.0 | 9.0 | 9.0
Cc1ccc(OC(C)C(=O)OC(C)C)c(-c2nsc3ccc(-n4c(=O)cc(C(F)(F)F)n(C)c4=O)cc23)c1 (stereo not drawn) [Compound 82, Isopropyl 2-{{2-{5-[3,6-dihydro-3-methyl-2,6-dioxo-4-(trifluoromethyl)-1(2H)-pyrimidinyl)-1,2-benzisothiazol-3-yl}-p-tolyl}oxy}propionate] | 6.0 | 9.0 | 9.0 | 5.5 | 5.5 | 5.5 | 9.0 | 4.0 | 6.0 | 1.0 | 9.0 | 7.0
CCC(CC)OC(=O)COc1ccc(C)cc1-c1nsc2ccc(-n3c(=O)cc(C(F)(F)F)n(C)c3=O)cc12 [Compound 83, 1-Ethylpropyl {{2-{5-[3,6-dihydro-3-methyl-2,6-dioxo-4-(trifluoromethyl)-1(2H)-pyrimidinyl)-1,2-benzisothiazol-3-yl}-p-tolyl}oxy}acetate] | 9.0 | 9.0 | 9.0 | 8.0 | 7.5 | 6.0 | 9.0 | 7.0 | 6.5 | 3.0 | 9.0 | 9.0
Cc1ccc(OCC(=O)OC2CCCC2)c(-c2nsc3ccc(-n4c(=O)cc(C(F)(F)F)n(C)c4=O)cc23)c1 [Compound 84, Cyclopentyl {{2-{5-[3,6-dihydro-3-methyl-2,6-dioxo-4-(trifluoromethyl)-1(2H)-pyrimidinyl)-1,2-benzisothiazol-3-yl}-p-tolyl}oxy}acetate] | 9.0 | 9.0 | 9.0 | 8.0 | 8.0 | 7.5 | 9.0 | 9.0 | 8.0 | 4.0 | 9.0 | 9.0
Cc1ccc(OCC(=O)OC(C)C(C)(C)C)c(-c2nsc3ccc(-n4c(=O)cc(C(F)(F)F)n(C)c4=O)cc23)c1 (stereo not drawn) [Compound 85, 1,2,2-Trimethylpropyl {{2-{5-[3,6-dihydro-3-methyl-2,6-dioxo-4-(trifluoromethyl)-1(2H)-pyrimidinyl]-1,2-benzisothiazol-3-yl}-p-tolyl}oxy}acetate] | 2.0 | 5.0 | 8.0 | 7.0 | 5.0 | 6.5 | 5.0 | 5.0 | 5.5 | 2.0 | 9.0 | 7.0
